{
  "source": "patent US20160089401A1",
  "about": "“USES OF TREHALOSE IN CELL SUSPENSIONS” (Cook General Biotechnology LLC, priority 2014, published 2016)",
  "key": {"[1]": {"tested_on": "canine uterine regenerative cells (mesenchymal stem cell populations obtained from canine uterine tissue)", "test": "Clumping of thawed previously-cryopreserved cells in saline bags with candidate anti-clumping agents", "format": "cell-based", "method": "The cells used in this Example were purified mesenchymal stem cell populations obtained from canine uterine tissue (from passage 5). The cells were frozen in cryovials in 2% DMSO in VetStarch. The frozen cell samples were provided as 2 mL aliquots with a cell density of 10 million cells/mL. Cells from 3 different canine donors were included n the testing, labeled herein as Donor1; Donor2 and Donor3.\nExperiments were performed in 50 mL bags commonly used for saline solutions to be administered to the bloodstream of patients. The experimental volume for the prepared cell suspension was between 5-10 mL depending on the run. Chemicals tested for their anti-clumping ability included dextrose, hydroxyethyl starch, and trehalose. Concentrations of these chemicals varied between experiments. Solutions of anti-clumping agents were prepared then injected into the bags. Concentration and volumes were computed so that targeted concentrations of anti-clumping agents were reached once the cells were injected in the bag. Volumes were chosen so that the cells were at one million cells/mL after preparation of the final composition in the bags.\nCryovials containing the cells were thawed in a 37° C. water bath until ice crystals just thawed. Cells were drawn out of the vial through a needle septum of the vial with an 18 gauge needle and slowly added to the bag through a needle septum of the bag so as not to lyse the cells. The vial was then washed with saline and this wash volume was also carefully injected into the bag through the needle septum."}, "[2]": {"tested_on": "canine uterine regenerative cells (mesenchymal stem cell populations obtained from canine uterine tissue)", "test": "Post-bag cell viability by trypan blue staining", "format": "cell-based", "method": "After time in the bag had expired, the cells were carefully removed from the bag with a syringe and 18 gauge needles. This volume was carefully placed in a 50 mL conical flask. It was mixed to ensure even distribution of cells, then mixed 1:1 with trypan blue and counted to determine viability. The volume was then centrifuged at 400 g for 5 minutes, supernatant aspirated, and resuspended in 2mL complete media. 1 mL of this cell suspension was then plated into a T25 flask. 24 hours later, the plates were observed and the condition of the cells noted."}, "[3]": {"settings": "Donor2 cells, 1 million/mL, trehalose 1.65%"}, "[4]": {"settings": "Donor2 cells, 1 million/mL, trehalose 3.3%"}, "[5]": {"settings": "summary, previously-cryopreserved cells after thawing"}},
  "data": [
    {"smiles": "OC[C@H]1O[C@H](O[C@H]2O[C@H](CO)[C@@H](O)[C@H](O)[C@H]2O)[C@H](O)[C@@H](O)[C@@H]1O", "note": "[trehalose, (2R,3S,4S,5R,6R)-2-(hydroxymethyl)-6-[(2R,3R,4S,5S,6R)-3,4,5-trihydroxy-6-(hydroxymethyl)oxan-2-yl]oxyoxane-3,4,5-triol]", "values": [
      {"measurement": "clumps after 80 minutes", "setting": "[1]; Donor1 cells (section 1.7 run), 1 million/mL, trehalose 3.3%", "value": "essentially all clumps were very small and barely visible with the exception of one or two slightly larger clumps"},
      {"measurement": "time at which some clumping was observed", "setting": "[1]; Donor1 cells (section 1.7 run), 1 million/mL, trehalose 3.3%, barely visible, very small clumps", "value": 20, "unit": "min"},
      {"measurement": "clumps after 80 minutes", "setting": "[1]; Donor1 cells, 1 million/mL, trehalose 3.3% in final preparation", "value": "no clumps formed"},
      {"measurement": "clumps after 80 minutes", "setting": "[1]; [3]", "value": "a few stringy clumps"},
      {"measurement": "time at which small clumps began to form", "setting": "[1]; [3]", "value": 20, "unit": "min"},
      {"measurement": "clumps after 80 minutes", "setting": "[1]; [4]", "value": "only several clumps and they remained small"},
      {"measurement": "time at which small clumps began to form", "setting": "[1]; [4]", "value": 20, "unit": "min"},
      {"measurement": "clumps after 80 minutes", "setting": "[1]; Donor3 cells, 1 million/mL, trehalose 3.3%", "value": "only several very small clumps and they were still barely visible"},
      {"measurement": "time at which clumps began to form", "setting": "[1]; Donor3 cells, 1 million/mL, trehalose 3.3%, clumps very small and barely visible", "value": 20, "unit": "min"},
      {"measurement": "reduction of cell clumping as compared to saline alone", "setting": "[1]; [5]", "value": "greatly reduces clumping"},
      {"measurement": "size/appearance of clumps present", "setting": "[1]; [5]", "value": "tiny generally spheroid particles barely visible to the human eye"},
      {"measurement": "viability by trypan blue staining", "setting": "[2]; Donor1 cells, end of clumping experiment, trehalose 3.3%, hydroxyethyl starch 25% in final preparation", "value": 94, "unit": "%"},
      {"measurement": "cell viability", "setting": "[2]; summary, after exposure for an estimated duration of cell infusion", "value": "above 90%"}
    ]}
  ]
}
